Experimental data taken from patent US20210330611A1, “THERAPY FOR NEUROLOGICAL DISEASES/DISORDERS” (priority 2020, published 2021).
Where a name gives a salt, the structure may show the parent alone. Read-outs that look alike come from different tables or passages of the source.

Experiments:
[1] = test system: fibrin-induced microglia activation; assay: Image-based assay of fibrin-induced microglia activation (HTS and dose response); format: cell-based, rat; details: primary microglia HTS, fibrin stimulation; for inhibition at 10 µM: Rattus norvegicus, Microglia, read-out: Fibrin % inhibition
[2] = test system: LPS-induced microglia activation; assay: Image-based assay of LPS-induced microglia activation (HTS and dose response); format: cell-based, rat; details: for inhibition at 10 µM: Rattus norvegicus, Microglia, read-out: LPS % inhibition
[3] = test system: fibrin- and LPS-induced microglia activation; assay: cells; format: cell-based, rat
[4] = test system: primary rat microglia
[5] = test system: primary rat microglia; assay: Cell toxicity (dead cells, size <150 μm2) in coated fibrin (cFib) assay; details: primary microglia HTS;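 note: share of dead cells sized under 150 µm2 at 10 µM in fibrin-stimulated microglia HTS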
[6] = primary microglia HTS, LPS stimulation, compounds at 10 μM
[7] = quadrant by fibrin and LPS inhibition, HTS at 10 μM
[8] = fibrin assay, dead cells (size <150 μm2)
[9] = cell size >800 μm2 as marker of activation
[10] = classification by fibrin and LPS inhibition in HTS
[11] = fibrin stimulation, cell size <150 μm2 as marker of toxicity
[12] = classification by fibrin and LPS inhibition, HTS at 10 μM
[13] = fibrin assay, dead cells (size <150 μm2), compounds at 10 μM

Row | SMILES | inhibition at 10 µM ([1]; compounds at 10 μM) [%] | inhibition at 10 µM [2, 6] [%] | Quadrant (FIG. 5b) [3, 7] | LPS % cell toxicity ([4]; rat) [%] | Fibrin % cell toxicity [5, 8] [%] | Fibrin % inhibition [1, 9] [%] | LPS % inhibition [2] [%] | Quadrant (FIG. 5b) [3, 10] | LPS % cell toxicity [4] [%] | Fibrin % cell toxicity [5, 11] [%] | inhibition at 10 µM [1, 9] [%] | inhibition at 10 µM ([2]; 48 h) [%] | Quadrant (FIG. 5b) [3, 12] | Fibrin % cell toxicity [5, 13] [%]
1 | CCC(=O)OCC(=O)[C@@]1(OC(=O)CC)[C@@H](C)C[C@H]2[C@@H]3CCC4=CC(=O)C=C[C@]4(C)[C@@]3(Cl)[C@@H](O)C[C@@]21C [Beclomethasone Dipropionate] | 7 | 28 | Q4 | 1 | 1 |  |  |  |  |  |  |  |  | 
2 | CC(C)NC(=N)NC(=N)Nc1ccc(Cl)cc1 [Proguanil; Chlorguanide Hydrochloride] |  |  |  |  |  | −7 | 20 | Q4 | 1 | 0 |  |  |  | 
3 | C=CC[C@]1(O)CC[C@H]2[C@@H]3CCC4=CC(=O)CCC4=C3C=C[C@@]21C [Altrenogest] | 6 | 15 | Q4 | 0 | 1 |  |  |  |  |  |  |  |  | 
4 | O=C(Nc1ccccc1)c1ccccc1O [Salicylanilide] |  |  |  | 0 |  |  |  | Q4 |  | 1 | 1 | 13 |  | 
5 | O=C(O)CCc1nc2ccccc2[nH]1 [Procodazole] |  |  |  | 0 |  |  |  | Q4 |  | 1 | -15 | 15 |  | 
6 | C=CCN=C=S [Allylisothiocyanate] | 11 | 18 | Q4 | 0 | 1 |  |  |  |  |  |  |  |  | 
7 | O=C(NCCCN1CCOCC1)c1ccc(Cl)cc1 [Eprobemide] | -24 | 21 |  | 0 |  |  |  |  |  |  |  |  | Q4 | 0
8 | O=C1[C@H](CC[C@H](O)c2ccc(F)cc2)[C@@H](c2ccc(O)cc2)N1c1ccc(F)cc1 [Ezetimibe] | 41 | 27 |  | 0 |  |  |  |  |  |  |  |  | Q4 | 1
9 | CC(Oc1ccccc1)C(=O)N[C@@H]1C(=O)N2[C@@H]1SC(C)(C)[C@@H]2C(=O)O (some centres unmarked) [Phenethicillin Potassium] |  |  |  | 0 |  |  |  | Q4 |  | 0 | -2 | 3 |  | 
10 | CC(=O)NCCCCCC(=O)O [Acexamic Acid] | -25 | 13 | Q4 | 0 | 1 |  |  |  |  |  |  |  |  | 
11 | C[C@H]1[C@@H](O)O[C@@H]2O[C@@]3(C)CC[C@H]4[C@H](C)CC[C@@H]1[C@@]24OO3 [Artenimol] | -56 | 11 | Q4 | 0 | 0 |  |  |  |  |  |  |  |  | 
12 | CCCCCCCCCCOc1cc2c(O)c(C(=O)OCC)cnc2cc1OCC [Decoquinate] | 7 | 20 |  | 1 |  |  |  |  |  |  |  |  | Q4 | 1
13 | CCN[C@@H](C)Cc1cccc(C(F)(F)F)c1 [Dexfenfluramine] | -15 | 5 |  | 0 |  |  |  |  |  |  |  |  | Q4 | 1
14 | Nc1ccc(C(=O)NCC(=O)O)cc1 [Aminohippuric Acid] | -7 | 16 | Q4 | 1 | 1 |  |  |  |  |  |  |  |  | 
15 | NC(=O)c1ccc([N+](=O)[O-])cc1Cl [Aklomide] | -18 | -2 | Q4 | 0 | 0 |  |  |  |  |  |  |  |  | 
16 | COC(=O)/C=C/C(=O)OC [Dimethyl Fumarate] | 4 | 16 |  | 0 |  |  |  |  |  |  |  |  | Q4 | 0
17 | CCOC(=O)OC(C)OC(=O)[C@@H]1N2C(=O)[C@@H](NC(=O)[C@H](N)c3ccccc3)[C@H]2SC1(C)C (some centres unmarked) [Bacampicillin Hydrochloride] | -12 | 8 | Q4 | 0 | 1 |  |  |  |  |  |  |  |  | 
18 | CN1C(=O)CC(c2ccccc2)C1=O (centres unmarked) [Phensuximide] |  |  |  | 0 |  |  |  | Q4 |  | 1 | -7 | 4 |  | 
19 | CN1CCC[C@@H]1Cc1c[nH]c2ccc(CCS(=O)(=O)c3ccccc3)cc12 [Eletriptan Hydrobromide] | -14 | 12 |  | 0 |  |  |  |  |  |  |  |  | Q4 | 1
20 | NC(=O)c1cnccn1 [Pyrazinamide] |  |  |  | 0 |  |  |  | Q4 |  | 0 | -20 | 13 |  | 
21 | CCCN(CCC)C(=O)C(CCC(=O)O)NC(=O)c1ccccc1 (centres unmarked) [Proglumide] |  |  |  | 0 |  |  |  | Q4 |  | 1 | -4 | -1 |  | 
22 | Nc1ccncc1 [Dalfampridine] | 8 | 2 |  | 0 |  |  |  |  |  |  |  |  | Q4 | 2
23 | CC[C@H]1OC(=O)[C@H](C)[C@@H](O[C@H]2C[C@@](C)(OC)[C@@H](O)[C@H](C)O2)[C@H](C)[C@@H](O[C@@H]2O[C@H](C)C[C@H](N(C)C)[C@H]2O)[C@](C)(O)C[C@@H](C)/C(=N\OCOCCOC)[C@H](C)[C@@H](O)[C@]1(C)O [Roxithromycin] |  |  |  | 1 |  |  |  | Q4 |  | 0 | -4 | 17 |  | 
24 | NC[C@@H]1O[C@H](O[C@H]2[C@@H](O)[C@H](O[C@@H]3[C@@H](O)[C@H](N)C[C@H](N)[C@H]3O[C@H]3O[C@H](CO)[C@@H](O)[C@H](O)[C@H]3N)O[C@@H]2CO)[C@H](N)[C@@H](O)[C@@H]1O [Paromomycin Sulfate] |  |  |  | 0 |  |  |  | Q4 |  | 1 | 9 | 14 |  | 
25 | O=C(O)c1ccccc1C(=O)Nc1ccc(S(=O)(=O)Nc2nccs2)cc1 [Phthalylsulfathiazole] |  |  |  | 1 |  |  |  | Q4 |  | 1 | 3 | 13 |  | 
26 | CCOc1cc(C=O)ccc1O [Ethyl Vanillin] | -15 | 18 |  | 0 |  |  |  |  |  |  |  |  | Q4 | 0
27 | CC(=O)OCC(CCn1cnc2cnc(N)nc21)COC(C)=O [Famciclovir] | -22 | 14 |  | 1 |  |  |  |  |  |  |  |  | Q4 | 0
28 | CC(O)(CC(=O)O)CC(=O)O [3-Hydroxy-3-Methyl-Glutaric Acid] | 9 | 8 | Q4 | 0 | 0 |  |  |  |  |  |  |  |  | 
